# Reference: patent US8206732B2, “Pyrithione biocides enhanced by silver, copper, or zinc ions” (Arch Chemicals, Inc., priority 1999, dated 2012)
# How the values were obtained:
# [1] = system: Aspergillus niger ATCC 6275; experiment: MIC in Tryptic Soy Broth, microtiter (Example 1); assay type: cell-based; settings: TSB, 28° C., incubated 7-8 days; single agent (NaPT without Cu)
# Cephalosporium sp. = experiment: MIC in Tryptic Soy Broth, microtiter (Example 1); assay type: cell-based; settings: TSB, 28° C., incubated 5 days; single agent (NaPT without Cu)
# [2] = system: Pseudomonas aeruginosa ATCC 9027; experiment: MIC in Tryptic Soy Broth, microtiter (Example 1); assay type: cell-based; settings: TSB, 28° C., incubated 5-6 days; single agent (NaPT without Cu)
# [3] = system: Fusarium sp. and Cephalosporium sp.; experiment: Challenge test in metalworking fluid emulsion, fungal viable plate counts (Example 4, FIG. 2); assay type: cell-based; settings: 250 ppm (v/v) NaPT (40% active), 10 ppm Cu (II) or Zn(II); challenged twice over 40 days
# Experimental: An emulsion was prepared from a 5% dilution of a concentrate, consisting of mineral oil (83.5%), sulfonated hydrocarbon (10.7%), oleic acid (1.0%), triethanolamine (0.8%), methyl tallowate (3.0%), and propylene glycol ether (1.0%) and dispensed into Erlenmeyer flasks. Each sample was challenged twice over a period of 40 days with 10^7 calls of bacteria and 10^5 fungal spores per milliliter of emulsion. The challenge consisted of seven strains of bacteria and 2 strains of fungi originally isolated from contaminated metalworking fluid: Pseudomonas rubescens NCIMB 12202, Pseudomonas stutzeri sp., Pseudomonas fluorescens NCIMB 12202, Pseudomonas aeruginosa CIMB 6749, Pseudomonas olevorans NCIMB 6576, Alcaligenes faecalis sp., Citrobacter freundii CIMB 12203, Fusarium sp., and Cephalosporium sp. The fluids were agitated continuously on a rotary shaker, and surviving bacteria and fungi were enumerated periodically by viable plate counts on Tryptic Soy Agar.
# [4] = system: seven strains of bacteria isolated from contaminated metalworking fluid; experiment: Challenge test in metalworking fluid emulsion, bacterial viable plate counts (Example 4, FIG. 1); assay type: cell-based, Pseudomonas spp., Alcaligenes faecalis, Citrobacter freundii; settings: 250 ppm (v/v) NaPT (40% active), 10 ppm Cu (II) or Zn(II); challenged twice over 40 days
# Fusarium sp. [5] = experiment: MIC in Tryptic Soy Broth, microtiter (Example 1); assay type: cell-based; settings: TSB, 28° C., incubated 5 days; single agent (NaPT without Cu)
# Experimental: Equal volumes of bacterial suspension (10^6 bacteria per milliliter of TSB) containing Pseudomonas aeruginosa ATCC 9027 or fungal spore suspension (10^5 spores per milliliter of TSB) containing Aspergillus niger ATCC 6275 or species of Fusarium and Cephalosporium isolated from contaminated metalworking fluid were added to each microtiter plate well, and the plates were incubated at 28° C. Controls were prepared for cultures inoculated into TSB with and without Cu (II).
# Candida albicans 10251 = experiment: Checkerboard MIC test, pyrithiones with silver salts; assay type: cell-based; settings: silver ion alone or in the inhibitory mixture; TSB pH 7.3, 35° C., 1 to 2 days
# Pityrosporum ovale 1452 = experiment: as above; assay type: cell-based; settings: silver ion alone or in the inhibitory mixture; Ushijima Medium pH 5.5, 35° C., 1 to 2 days
# [6] = system: Pseudomonas aeruginosa 9027; experiment: as above; assay type: cell-based; settings: silver ion alone or in the inhibitory mixture; TSB pH 7.3, 35° C., 1 to 2 days
# Escherichia coli 10536 = experiment: as above; assay type: cell-based; settings: TSB pH 7.3, 35° C., 1 to 2 days
# [7] = system: Staphylococcus aureus 27217; experiment: as above; assay type: cell-based; settings: TSB pH 7.3, 35° C., 1 to 2 days
# Fusarium sp. [8] = experiment: Checkerboard MIC test, pyrithiones with zinc salts; assay type: cell-based; settings: pyrithione alone or pyrithione concentration in the inhibitory mixture; TSB, 28 C, 5 days
# Experimental: Mixtures of pyrithione and zinc or silver in various proportions were tested for relative efficacy by a modification of the procedure described by Dougherty, et al.
# Equal volumes of bacteria (10^6 cells/ml) or fungi (10^5 spores/ml) were added to each microtiter plate well. The plates were incubated at 28 C for 3 days (bacteria) or 5 days (fungi), and the minimum inhibitory concentration (MIC) of biocide was determined. The Fractional Inhibitory Concentration (FIC=concentration of biocide in an inhibitory mixture divided by the MIC of the pure biocide) was determined, and the FIC Index (sum of the two FIC's) was calculated. The type of interaction was categorized according to the magnitude of the Index: Synergistic (<1), Additive (1), or Antagonistic (>1).
# [9] = system: Escherichia coli ATCC 10536; experiment: Zone of inhibition test (paper disc on TSA); assay type: cell-based; settings: 6.5 mm discs; 0.135% pyrithione, 0.1% ZnCl2 or both; 28° C., 24 hr
# [10] = system: seven cultures of bacteria; experiment: Challenge test in soluble oil metalworking fluid, bacteria (Example 6); assay type: cell-based; settings: soluble oil MWF, 10 ppm Zn, 100 ppm NaPT, 50 ppm ZPT or 50 ppm CuPT as in column head
# [11] = system: Staphylococcus aureus ATCC 27217; experiment: Zone of inhibition test (paper disc on TSA); assay type: cell-based; settings: 6.5 mm discs; 0.135% pyrithione, 0.1% ZnCl2 or both; 28° C., 24 hr
# [12] = system: Staphylococcus aureus ATCC 27217; experiment: Checkerboard MIC test, pyrithiones with zinc salts; assay type: cell-based; settings: pyrithione alone or pyrithione concentration in the inhibitory mixture; TSB, 28 C, 3 days
# [13] = system: Pseudomonas aeruginosa NCIMB 6749; experiment: Zone of inhibition test (paper disc on TSA); assay type: cell-based; settings: 6.5 mm discs; 0.135% pyrithione, 0.1% ZnCl2 or both; 28° C., 24 hr
# [14] = system: Pseudomonas aeruginosa NCIMB 6749; experiment: Checkerboard MIC test, pyrithiones with zinc salts; assay type: cell-based; settings: pyrithione alone or pyrithione concentration in the inhibitory mixture; TSB, 28 C, 3 days
# Ps. aeruginosa ATCC 9027 = experiment: Checkerboard MIC test, pyrithiones with zinc salts; assay type: cell-based, Pseudomonas aeruginosa; settings: pyrithione alone or in the inhibitory mixture with ZnO; TSB, 28 C, 3 days
# two cultures of fungi = experiment: Challenge test in soluble oil metalworking fluid, fungi (Example 6); assay type: cell-based; settings: soluble oil MWF, 10 ppm Zn, 100 ppm NaPT, 50 ppm ZPT or 50 ppm CuPT as in column head
# [15] = system: Aspergillus niger ATCC 6275; experiment: Checkerboard MIC test, pyrithiones with zinc salts; assay type: cell-based; settings: pyrithione alone or in the inhibitory mixture with ZnO; TSB, 28 C, 5 days
# [16] = silver ion alone or in the inhibitory mixture
# [17] = ZPT alone or in the inhibitory mixture with silver salt
molecule,measurement,setting,value
"O.O.O.O.O.O=S(=O)([O-])[O-].[Cu+2] [Cu (II), CuSO4.5H2O]",MIC,[1],>0.5 ppm
same,MIC,Cephalosporium sp.,>0.5 ppm
same,MIC,[2],>0.5 ppm
same,antifungal efficacy in a metalworking fluid (FIG. 2),[3],little effect on reducing the growth of fungi
same,antibacterial efficacy in a metalworking fluid (FIG. 1),[4],significantly reduced bacterial counts until the second challenge
same,MIC,Fusarium sp. [5],>0.5 ppm
"[Cl][Ag] [AgCl2, AgCl]",MIC Ag^+1 Ion,Candida albicans 10251,9.8 ppm
same,MIC Ag^+1 Ion,Pityrosporum ovale 1452,1.2 ppm
same,MIC Ag^+1 Ion,[6],3.8 ppm
same,MIC Ag^+1 Ion,Escherichia coli 10536; [16],18.8 ppm
same,MIC Ag^+1 Ion,[7]; [16],9.5 ppm
zinc pyrithione [ZPT],MIC Pyrithione,Fusarium sp. [8],64 ppm
same,Zone of Inhibition,[9],31 mm
same,BACTERIA (cfu/ml),[10]; DAY 0,3.2 × 10^7 cfu/ml
same,BACTERIA (cfu/ml),[10]; DAY 6,1000 cfu/ml
same,BACTERIA (cfu/ml),[10]; DAY 13,4400 cfu/ml
same,BACTERIA (cfu/ml),[10]; DAY 20,7700 cfu/ml
same,Zone of Inhibition,[11],27 mm
same,MIC Pyrithione,[12],4 ppm
same,Zone of Inhibition,[13],10 mm
same,MIC Pyrithione,[14],256 ppm
same,MIC ZPT,Escherichia coli 10536; [17],8 ppm
same,MIC ZPT,[7]; [17],4 ppm
same,MIC Pyrithione,Ps. aeruginosa ATCC 9027,512 ppm
same,FUNGI (cfu/ml),two cultures of fungi; DAY 0,2.4 × 10^5 cfu/ml
same,FUNGI (cfu/ml),two cultures of fungi; DAY 6,1000 cfu/ml
same,FUNGI (cfu/ml),two cultures of fungi; DAY 13,10 cfu/ml
same,FUNGI (cfu/ml),two cultures of fungi; DAY 20,10 cfu/ml
same,MIC Pyrithione,[15],64 ppm
